According to patent US6111069A, “Polypeptides that include conformation-constraining groups which flank a protein-protein interaction site” (Virginia Commonwealth University, priority 1997, dated 2000):
Where a SMILES comes first, the peptide text is derived from it.

Key:
[1] = Preliminary studies of hypotensive peptide versus diltiazem (diastolic pressure, arrhythmia); format: in vivo, rat
Description: 60 to 120 μg per rat (5 to 10 μM).

[2] = tested on: receptors of sweet tasting papillae; details: comparison value; cited from earlier work

SMILES | Effect on diastolic pressure [1] | Sweetness relative to sugar [2] [times sweeter than sugar]
CSCC[C@H](NC(=O)[C@H](C)NC(=O)[C@@H](NC(=O)[C@@H]1CCCN1C(=O)[C@H](C)N)[C@@H](C)O)C(=O)N[C@@H](Cc1c[nH]c2ccccc12)C(=O)N1CCC[C@H]1C(=O)N[C@@H](C)C(=O)O [HP-1, Ala-Pro-Thr-Ala-Met-Trp-Pro-Ala] (H-APTAMWPA-OH) | does not increase diastolic pressure | 
COC(=O)[C@H](Cc1ccccc1)NC(=O)[C@@H](N)CC(=O)O [aspartame] (H-Asp-Phe-OMe) |  | 160
